Laboratory results as given in ChEMBL document CHEMBL5729292, “Bromodomain inhibitor compound and use thereof” (2022).

Target: Bromodomain-containing protein 4 (Homo sapiens, UniProt O60885)
Experiment: Inhibitory Activity Assay of BRD4 Small Molecule Compounds: AlphaScreen kit (Perkin Elmer) was used to detect effect of the compounds on binding of BRD4 bromodomain to acetylated histone H4 polypeptide. […] Each of fusion proteins containing (His)6tag can be recognized and bound by Ni2+. […] The donor microbeads were coated with streptavidin and can bind to biotinylated acetylated H4 polypeptide. The acceptor microbeads were coated with Ni2+ ions and can bind to the BD1 protein with (His)6tag. When the BD1 protein recognized the acetylated H4 polypeptide, the donor microbeads and the acceptor microbeads can be brought closer to a certain distance. Within this range, the donor microbeads can produce singlet oxygen after being irradiated with a 680 nm excitation light, and transfer the singlet oxygen to the acceptor microbeads. After a series of cascade chemical reactions, the acceptor microbeads will generate an emission wave of 520-620 nm, which in turn can be detected a signal. In this experiment, the test system was 20 μL, and the compound needs to be diluted in buffer 1 (20 mM HEPES pH 7.4, 150 mM NaCl, 1 mM dithiothreitol). First, a solution of 20 mM compound was consecutively diluted twice, each in 10 times, totally in 100 times to a concentration of 200 μM. […] The recombinant BD1 protein solution and the acetylated histone H4 polypeptide were diluted in the buffer 2 (20 mM HEPES pH 7.4, 150 mM NaCl, 0.01% Triton X-100, 0.1% bovine serum protein (w/v, Sigma), 1 mM dithiothreitol) to 100 nM and 100 nM respectively, to obtain a 8×BD1 protein working solution and a 4× acetylated histone H4 polypeptide working solution. The donor microbeads and the acceptor microbeads are diluted together in the buffer 2, both in the ratio of 1:100, to obtain a 2× microbead mixed working solution. The plate was added with 2.5 μL of BD1 protein working solution and incubated with the compound for 20 min at room temperature, and then added with 5 μL of acetylated histone H4 polypeptide working solution and incubated at room temperature for 5 min, and finally added with 10 μL of microbead mixed working solution and incubated at room temperature for 60 min. […] IC50 values of the compounds at different concentrations for inhibiting the binding of BD1 protein to acetylated H4 polypeptide were calculated by fitting using GraphPad Prism 5.0 software.

First: Cc1cc(-c2cc(NS(C)(=O)=O)ccc2Oc2ccccc2)n2nc[nH]c(=O)c12
Second: Cc1cc(-c2cc(NS(C)(=O)=O)ccc2Oc2ccccc2)n2cn[nH]c(=O)c12
The IC50 of the first is 3.8-fold higher: 434 nM for the first, 114 nM for the second.

Going from `Cc1cc(-c2cc(NS(C)(=O)=O)ccc2OC2CCOCC2)n2cn[nH]c(=O)c12` to `Cc1cc(-c2cc(NS(C)(=O)=O)ccc2OCC2CC2)n2cn[nH]c(=O)c12`, the IC50 rises from 124 nM to 471 nM (3.8-fold).

`CCS(=O)(=O)c1ccc(Oc2ccccc2C)c(-c2cc(C)c3c(=O)[nH]ccn23)c1` and `Cc1ccccc1Oc1ccc(NS(C)(=O)=O)cc1-c1cc(C)c2c(=O)[nH]ccn12` are within 1.5-fold of each other in IC50: 131 nM for the first, 119 nM for the second.

`Cc1cc(-c2cc(CS(C)(=O)=O)ccc2Nc2ccc(F)cc2F)n2cc[nH]c(=O)c12` and `Cc1cc(-c2cc(CS(C)(=O)=O)ccc2Nc2ccccc2)n2cc[nH]c(=O)c12` are within 1.5-fold of each other in IC50: 161 nM for the first, 138 nM for the second.

`Cc1cc(-c2cc(S(C)(=O)=O)ccc2Oc2ccc(F)cc2F)n2cc[nH]c(=O)c12` and `Cc1cc(-c2cc(NS(C)(=O)=O)ccc2Oc2ccc(F)cc2F)n2cn[nH]c(=O)c12` are within 1.5-fold of each other in IC50: 132 nM for the first, 92.6 nM for the second.

Going from `Cc1cc(-c2cc(S(C)(=O)=O)ccc2Oc2ccccc2)n2cc[nH]c(=O)c12` to `Cc1cc(-c2ccccc2Oc2ccccc2)n2cc[nH]c(=O)c12`, the IC50 rises from 134 nM to 905 nM (6.8-fold).

First: Cc1cc(-c2cc(CS(C)(=O)=O)ccc2Oc2ccc(F)cc2F)n2cn[nH]c(=O)c12
Second: Cc1cc(-c2cc(NS(C)(=O)=O)ccc2Oc2ccccc2)n2c1C(=O)NCC2
The IC50 of the first is 17-fold lower: 4.5 nM for the first, 76.9 nM for the second. The first is the more potent here.

Molecule `Cc1cc(-c2ccccc2Oc2ccccc2)n2nc[nH]c(=O)c12` has an IC50 of 910 nM.
